From a compilation of properties of binary mixtures (doi:10.1007/s10953-005-5594-7)

Assay: xn = mol fraction of the nth substance listed
Details: 298.15 K, 101.3 kPa

CCOC(C)=O + CCCC[n+]1ccn(C)c1.F[P-](F)(F)(F)(F)F
Details	viscosity [mPa·s]
x1 = 1	0.439

CCCC[n+]1ccn(C)c1.F[P-](F)(F)(F)(F)F + CCC(C)=O
Details	viscosity [mPa·s]
x2 = 0	270
x2 = 0.0995	145
x2 = 0.2007	81.6
x2 = 0.5002	13.55
x2 = 0.5506	9.82
x2 = 0.5988	7.27
x2 = 0.7023	3.701
x2 = 0.8004	1.861
x2 = 0.9027	0.861
x2 = 0.9487	0.606

CCC(C)=O + CCCC[n+]1ccn(C)c1.F[P-](F)(F)(F)(F)F
Details	viscosity [mPa·s]
x1 = 1	0.388

CCCC[n+]1ccn(C)c1.F[P-](F)(F)(F)(F)F + CCOC(C)=O
Details	viscosity [mPa·s]
x2 = 0	270
x2 = 0.0937	149
x2 = 0.1914	87.9
x2 = 0.2918	48.2
x2 = 0.3944	27.52
x2 = 0.4485	20.54
x2 = 0.4967	16.16
x2 = 0.5529	11.52
x2 = 0.6039	8.45
x2 = 0.7092	4.21
x2 = 0.8037	2.208
x2 = 0.898	1.083
x2 = 0.9504	0.699

CCCC[n+]1ccn(C)c1.F[P-](F)(F)(F)(F)F + CC(C)=O
Details	viscosity [mPa·s]
x2 = 0	270
x2 = 0.1147	137
x2 = 0.198	84.8
x2 = 0.2923	46.7
x2 = 0.4035	24
x2 = 0.4993	13.41
x2 = 0.5495	9.68
x2 = 0.6519	4.99
x2 = 0.6989	3.69
x2 = 0.8956	0.81
x2 = 0.9481	0.516

CCCC[n+]1ccn(C)c1.F[P-](F)(F)(F)(F)F + CCC(=O)CC
Details	viscosity [mPa·s]
x2 = 0	270

CCC(=O)CC + CCCC[n+]1ccn(C)c1.F[P-](F)(F)(F)(F)F
Details	viscosity [mPa·s]
x1 = 0.1088	137
x1 = 0.3986	24.26
x1 = 0.4491	17.94
x1 = 0.5503	10.02
x1 = 0.601	7.37
x1 = 0.6983	4.03
x1 = 0.8007	2.022
x1 = 0.9019	0.972
x1 = 0.948	0.69
x1 = 1	0.458

O=C1CCCC1 + CCCC[n+]1ccn(C)c1.F[P-](F)(F)(F)(F)F
Details	viscosity [mPa·s]
x1 = 0.1883	114.8
x1 = 0.4475	33.04
x1 = 0.5025	24.71
x1 = 0.6034	14.52
x1 = 0.6502	11.01
x1 = 0.7011	7.89
x1 = 0.8041	4.19
x1 = 0.8982	2.274
x1 = 0.9518	1.566
x1 = 1	1.074

CC(C)=O + CCCC[n+]1ccn(C)c1.F[P-](F)(F)(F)(F)F
Details	viscosity [mPa·s]
x1 = 1	0.316
